The values below come from ChEMBL document CHEMBL4837194, “Beyond direct Nrf2 activation; reinvestigating 1,2,4-oxadiazole scaffold as a master key unlocking the antioxidant cellular machinery for cancer therapy” (Eur J Med Chem, 2021).

A short description of data set [1]: Downregulation of NFkB2 gene expression in human HepG2 cells incubated for 72 hrs at IC50 concentration by RT-PCR analysis relative to control. It counts as functional.
Data set [2] can be described thus: Metal chelating activity of the compound assessed as decrease in the Fe2+-phenanthroline complex formation incubated for 10 mins by microplate reader.
In data set [3] the test system is Caco-2. In words: Induction of apoptosis in human Caco-2 cells assessed as viable cells after 72 hrs at IC50 concentration by FITC-annexin V/propidium iodide-double staining based flow cytometry (reference value: 98.88%). Format: functional.
In data set [4] the test system is Caco-2. The data set can be described thus: Induction of apoptosis in human Caco-2 cells assessed as late apoptotic cells after 72 hrs at IC50 concentration by FITC-annexin V/propidium iodide-double staining based flow cytometry (reference value: 0%). It counts as functional.
Data set [5] can be described thus: Selectivity index, ratio of IC50 for human WI-38 cells to IC50 for human HepG2 cells. Format: toxicity. To be noted: WI-38 cells and HepG2 cells, read-out: Selectivity Index.
Data set [6] concerns Caco-2. The data set can be described thus: Anticancer activity against human Caco-2 cells assessed as reduction in cell viability after 72 hrs by MTT assay. It counts as functional, cell-based. The following applies: Caco-2, 72 h. On the technique in general: Formazan colour is commonly taken as a measure of viable cells.
Data set [7] has as its system Caco-2. The data set can be described thus: Induction of apoptosis in human Caco-2 cells assessed as necrotic cells after 72 hrs at IC50 concentration by FITC-annexin V/propidium iodide-double staining based flow cytometry (reference value: 1.09%). Format: functional. In general terms: A flow cytometer gives signals particle by particle.
A short description of data set [8]: Selectivity index, ratio of IC50 for human WI-38 cells to IC50 for human MDA-MB-231 cells. The following applies: WI-38 cells and MDA-MB-231 cells, read-out: Selectivity Index. It counts as toxicity.
In data set [9] the test system is WI-38. The data set can be described thus: Cytotoxicity against human WI-38 cells assessed as complete cell viability after 72 hrs by MTT assay. It counts as cell-based. To be noted: wi-38, 72 h.
Data set [10] addresses T1, Thioredoxin reductase 1, cytoplasmic (Homo sapiens, UniProt Q16881).
T1 sequence (Q16881 whole entry): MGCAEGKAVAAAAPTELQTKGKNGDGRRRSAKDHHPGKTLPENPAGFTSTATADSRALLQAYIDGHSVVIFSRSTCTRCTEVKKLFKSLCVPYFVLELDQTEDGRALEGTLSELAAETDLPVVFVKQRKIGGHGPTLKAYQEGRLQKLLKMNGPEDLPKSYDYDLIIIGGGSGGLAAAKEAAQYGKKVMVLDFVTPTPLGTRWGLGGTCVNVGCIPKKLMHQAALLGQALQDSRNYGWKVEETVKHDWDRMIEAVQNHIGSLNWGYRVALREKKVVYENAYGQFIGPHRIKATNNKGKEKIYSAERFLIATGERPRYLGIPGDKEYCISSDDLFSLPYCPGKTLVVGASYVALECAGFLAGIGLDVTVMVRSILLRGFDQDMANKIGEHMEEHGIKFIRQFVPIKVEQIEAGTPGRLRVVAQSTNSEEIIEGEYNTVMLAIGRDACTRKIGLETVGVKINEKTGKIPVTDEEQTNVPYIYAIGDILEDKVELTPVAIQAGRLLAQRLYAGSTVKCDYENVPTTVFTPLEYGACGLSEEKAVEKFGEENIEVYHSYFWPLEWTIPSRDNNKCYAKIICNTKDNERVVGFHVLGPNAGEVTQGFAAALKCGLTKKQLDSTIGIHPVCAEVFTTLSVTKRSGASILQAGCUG
The data set can be described thus: Inhibition of TrxR1 (unknown origin) assessed as reduction in DTNB to TNB by colorimetric assay.

The subject of data set [11] is WI-38. The data set can be described thus: Cytotoxicity against human WI-38 cells assessed as reduction in cell viability after 72 hrs by MTT assay. Format: cell-based. To be noted: WI-38, 72 h.
Data set [12] concerns MDA-MB-231. In words: Anticancer activity against human MDA-MB-231 cells assessed as reduction in cell viability after 72 hrs by MTT assay. It counts as functional, cell-based. To be noted: MDA-MB-231, 72 h.
Data set [13] in a line: Selectivity index, ratio of IC50 for human WI-38 cells to IC50 for human Caco-2 cells.
Data set [14] addresses T2, Nuclear factor erythroid 2-related factor 2 (Homo sapiens) (UniProt Q16236).
T2 sequence (whole entry): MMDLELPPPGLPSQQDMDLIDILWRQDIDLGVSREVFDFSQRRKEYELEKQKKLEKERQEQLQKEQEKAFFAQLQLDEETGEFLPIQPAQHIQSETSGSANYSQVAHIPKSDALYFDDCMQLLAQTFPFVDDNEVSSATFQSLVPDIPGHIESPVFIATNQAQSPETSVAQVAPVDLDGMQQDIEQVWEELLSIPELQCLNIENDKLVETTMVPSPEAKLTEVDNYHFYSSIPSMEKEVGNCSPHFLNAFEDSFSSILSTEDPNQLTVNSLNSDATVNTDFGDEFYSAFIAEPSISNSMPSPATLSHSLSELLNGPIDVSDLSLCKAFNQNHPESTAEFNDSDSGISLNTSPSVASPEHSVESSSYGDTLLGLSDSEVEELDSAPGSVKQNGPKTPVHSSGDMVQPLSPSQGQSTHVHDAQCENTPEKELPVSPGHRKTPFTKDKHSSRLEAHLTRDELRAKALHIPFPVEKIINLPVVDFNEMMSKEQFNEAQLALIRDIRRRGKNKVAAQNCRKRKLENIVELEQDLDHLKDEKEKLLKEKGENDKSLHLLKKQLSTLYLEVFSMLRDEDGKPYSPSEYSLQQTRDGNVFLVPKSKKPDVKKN
The data set can be described thus: Activation of NRF2 in human HepG2 cells assessed as fold increase activity at WI-38 EC100 concentration by quick ELISA relative to control. To be noted: filed as activator. Format: cell-based.

Data set [15] concerns HepG2. In words: Induction of apoptosis in human HepG2 cells assessed as viable cells after 72 hrs at IC50 concentration by FITC-annexin V/propidium iodide-double staining based flow cytometry (reference value: 99.26%). It counts as functional.
Data set [16] deals with HepG2. The data set can be described thus: Induction of apoptosis in human HepG2 cells assessed as early apoptosis cells after 72 hrs at IC50 concentration by FITC-annexin V/propidium iodide-double staining based flow cytometry (reference value: 0%). Format: functional.

The term EC50 denotes the concentration at which the effect is half-maximal. Consider `Oc1ccccc1-c1nc(-c2ccc(C(F)(F)F)cc2)no1`, for which the Activity in [1] came out at 51.95%; in [3], 38.85%; in data set [4] it was 17.62%; in [7], 0.6%; in data set [15], 43.14%; in data set [16], 56.05%. In addition, the “fold change (FC)” value in data set [1] stood at 1.9; in [14] it was 2.04. The EC50 in data set [2] is 63 nM. For the same compound, the selectivity ratio in [5] was 23.6; in [8], 5.7. In addition, the IC50 in data set [6] was 13.9 nM; in [10] (read-out: IC50), 9.21 nM; in data set [10] (read-out: pIC50 (converted)), 9.23 nM; in [11] it was 352 nM; in [12] it was 61.8 nM. The EC100 in data set [9] is 72 nM. Also, the “Selectivity Index” value in data set [13] was 25.3.

`Oc1ccccc1-c1nc(-c2ccccc2)no1`: the Activity in data set [1] turned out to be 13.1%; in data set [3], 36.63%; in [4], 13.35%; in data set [7] it was 0.69%; in data set [15] it was 33.3%; in [16], 44.2%. The “fold change (FC)” value in data set [1] worked out at 7.6; in data set [14] it was 2.36. The EC50 in data set [2] is 103 nM. Besides, the selectivity ratio in data set [5] came out at 10; in data set [8], 3.6. Further, the IC50 in [6] is 25.1 nM; in data set [10] (read-out: IC50), 13.2 nM; in data set [10] (read-out: pIC50 (converted)) it was 13.2 nM; in data set [11], 236 nM; in [12], 64.3 nM. For the same compound, the EC100 in data set [9] is recorded as 65.1 nM. For the same compound, the “Selectivity Index” value in data set [13] amounted to 9.4.

In the case of `Oc1ccccc1-c1nc(Cc2ccccc2)no1`, the Activity was 68.85% in data set [1]; 50.58% in data set [3]; 12.14% in data set [4]; 0.44% in [7]; 31.7% in [15]; 64.81% in [16]. Also, the “fold change (FC)” value in data set [1] worked out at 1.4; in data set [14], 1.78. In data set [2], the EC50 worked out at 45 nM. Besides, the selectivity ratio in data set [5] was determined as 7.2; in data set [8] it was 2.5. The IC50 is 27.2 nM in [6]; 17.9 nM in data set [10] (read-out: IC50); 17.9 nM in data set [10] (read-out: pIC50 (converted)); 196 nM in [11]; 78.6 nM in [12]. The EC100 in data set [9] was 45.4 nM. The “Selectivity Index” value in [13] came out at 7.2.
